US9326978B2, “A3 adenosine receptor allosteric modulators” (The United States of America, Represented by the Secretary, …, priority 2006, dated 2016)
Entries after “also recorded” stand apart in the source; their conditions may differ. Read-outs that look alike come from different tables or passages of the source.

Tests used:
human A3ARs = human A3ARs (Homo sapiens (Human), UniProt P0DMS8); assay: Cyclic AMP accumulation assay, efficacy at hA3AR; assay type: cell-based; conditions: compared to maximal effect by 2-Cl-IB-MECA alone (control = 100%)
Procedure: Intracellular cyclic AMP levels were measured with a competitive protein binding method (Nordstedt and Fredholm, 1990). CHO cells that expressed recombinant human A3ARs were harvested by trypsinization. After centrifugation and resuspension in medium, cells were plated in 24-well plates in 0.5 ml medium. After 24 hr, the medium was removed and cells were washed three times with 1 ml DMEM, containing 50 mM HEPES, pH 7.4. Cells were then treated with agonists and/or test compounds in the presence of rolipram (10 μM) and adenosine deaminase (3 units/ml). After 45 min forskolin (10 μM) was added to the medium, and incubation was continued an additional 15 min. The reaction was terminated by removing the supernatant, and cells were lysed upon the addition of 200 μL of 0.1 M ice-cold HCl. The cell lysate was resuspended and stored at −20° C. For determination of cyclic AMP production, protein kinase A (PKA) was incubated with [^3H]cyclic AMP (2 nM) in K2HPO4/EDTA buffer (K2HPO4, 150 mM; EDTA, 10 mM), 20 μL of the cell lysate, and 30 μL 0.1 M HCl or 50 μL of cyclic AMP solution (0-16 pmol/200 μL for standard curve). Bound radioactivity was separated by rapid filtration through Whatman GF/C filters and washed once with cold buffer. Bound radioactivity was measured by liquid scintillation spectrometry.

human A3AR = human A3AR (Homo sapiens (Human), UniProt P0DMS8); assay: Competitive binding assay to the human A3AR ([125I]I-AB-MECA)
Procedure: (§1) CHO (Chinese hamster ovary) cells expressing the recombinant human ARs (HEK-293 cells were used for the human A2AAR) were cultured in DMEM and F12 (1:1) supplemented with 10% fetal bovine serum, 100 units/ml penicillin, […] streptomycin and 2 μmol/ml glutamine. Cells were harvested by trypsinization. After homogenization and suspension, cells were centrifuged at 500 g for 10 min, and the pellet was re-suspended in 50 mM Tris.HCl buffer (pH 7.4) containing 10 mM MgCl2. The suspension was homogenized with an electric homogenizer for 10 sec, and was then re-centrifuged at 20,000 g for 20 min at 4° C. The resultant pellets were resuspended in buffer in the presence of 3 Units/mL adenosine deaminase, and the suspension was stored at −80° C. until the binding experiments. The protein concentration was measured using the Bradford assay.
Each tube in the competitive binding assay contained 100 μl membrane suspension (20 μg protein), 50 μl [^125I]-AB-MECA (0.5 nM), and 50 μl of increasing concentrations of the test ligands in Tris.HCl buffer (50 mM, pH 8.0) containing 10 mM MgCl2, 1 mM EDTA. Nonspecific binding was determined using 10 μM of 5′-N-ethylcarboxamidoadenosine in the buffer. The mixtures were incubated at 25° C. for 60 min. Binding reactions were terminated by filtration through Whatman GF/B filters under reduced pressure using a MT-24 cell harvester (Brandell, Gaithersburgh, Md., USA). Filters were washed three times with 9 mL ice-cold buffer. Radioactivity was determined in a Beckman 5500B γ-counter.

myeloid system = assay: Effect on the myeloid system of naïve mice (differential blood count); assay type: in vivo; conditions: naïve ICR mice, orally 100 μg/kg thrice daily for two days; blood 24 and 48 hours after last administration; vs control
Procedure: A stock solution of imidazoquinoline derivative 45 was prepared by dissolving the same in DMSO. Further dilutions for treatment were performed in PBS. As a control, an equivalent amount of DMSO in PBS was used.
To test the effect of imidazoquinoline derivative 45 on the myeloid system, the compound was orally administered at a dose of 100 μg/kg, thrice daily to ICR mice, for two consecutive days. Blood samples were withdrawn 24 and 48 hours after the last drug administration. A differential blood count was performed.

[1] = test system: adjuvant induced arthritis; assay: Adjuvant induced arthritis (AIA) model; assay type: in vivo; conditions: AIA rats, orally twice daily 100 μg/kg from onset of disease; vs control
Procedure: Adjuvant induced arthritis model (model for rheumatoid arthritis (RA)) was established in rats by immunizing the animals with an emulsion contacting Mycobacterium tuberculosis in Freund's adjuvant (Animal Models for Autoimmune and Inflammatory disease:Adjuvant Arthritis in the Rat. Current Protocols in Immunology, Supplement 19, page 15.4.2.). Treatment with imidazoquinoline derivative 45 was initiated upon onset of disease. The imidazoquinoline derivative 45 was administered orally twice daily at a dose of 100 μg/kg.
Evaluation of disease development was carried out daily, starting upon onset of disease until the end of the study. Intensity of arthritis was scored by grading each paw from 0-4 on erythema, swelling and deformity of the joint, every day: 0=no erythema or swelling; 1=slight erythema or swelling of one of the toes or fingers; 2=erythema and swelling of more than one toe or finger; 3=erythema and swelling of the ankle or wrist; 4=complete erythema and swelling of toes or fingers and ankles or wrist, and inability to bend the ankle or wrist. All scores of the four legs from each rat are added to give up to a maximum arthritic score of 16.

human A2A AR = human A2A AR (Homo sapiens (Human), UniProt P29274); assay: Binding assay to the human A2A AR ([3H]CGS21680); conditions: 10 μM
Procedure: as §1
(§2) For binding to the human A1AR, [^3H]R-PIA (2 nM) was incubated with membranes (40 μg/tube) from CHO cells stably expressing the human A1AR at 25° C. for 60 min in 50 mM Tris.HCl buffer (pH 7.4; MgCl2, 10 mM) in a total assay volume of 200 μL. Nonspecific binding was determined using 10 μM of N^6-cyclopentyladenosine. For human A2A AR binding, membranes (20 μg/tube) from HEK-293 cells stably expressing the human A2A AR were incubated with 15 nM [^3H]CGS21680 at 25° C. for 60 min in 200 μL of 50 mM Tris.HCl, pH 7.4, containing 10 mM MgCl2. N-5′-ethyluronamidoadenosine (10 μM) was used to define nonspecific binding. Reaction was terminated by filtration with GF/B filters.

human A1AR = human A1AR (Homo sapiens (Human), UniProt P30542); assay: Binding assay to the human A1AR ([3H]R-PIA); conditions: 1 h, 10 μM, CHO cells, read-out: hA1AR % displ. at 10 μM
Procedure: as §1, §2

human A2A AR, sequence (P29274 whole entry): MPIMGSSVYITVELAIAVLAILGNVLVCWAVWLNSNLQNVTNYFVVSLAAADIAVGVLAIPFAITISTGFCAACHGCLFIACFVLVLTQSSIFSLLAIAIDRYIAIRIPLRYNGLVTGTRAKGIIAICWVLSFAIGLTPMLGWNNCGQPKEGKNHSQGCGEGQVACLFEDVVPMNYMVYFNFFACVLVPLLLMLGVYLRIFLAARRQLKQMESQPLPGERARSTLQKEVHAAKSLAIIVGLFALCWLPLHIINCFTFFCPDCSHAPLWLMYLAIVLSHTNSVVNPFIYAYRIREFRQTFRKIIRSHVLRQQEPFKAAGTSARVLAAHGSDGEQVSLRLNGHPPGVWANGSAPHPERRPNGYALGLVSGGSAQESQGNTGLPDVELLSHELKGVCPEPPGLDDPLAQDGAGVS
human A1AR, sequence (P30542 whole entry): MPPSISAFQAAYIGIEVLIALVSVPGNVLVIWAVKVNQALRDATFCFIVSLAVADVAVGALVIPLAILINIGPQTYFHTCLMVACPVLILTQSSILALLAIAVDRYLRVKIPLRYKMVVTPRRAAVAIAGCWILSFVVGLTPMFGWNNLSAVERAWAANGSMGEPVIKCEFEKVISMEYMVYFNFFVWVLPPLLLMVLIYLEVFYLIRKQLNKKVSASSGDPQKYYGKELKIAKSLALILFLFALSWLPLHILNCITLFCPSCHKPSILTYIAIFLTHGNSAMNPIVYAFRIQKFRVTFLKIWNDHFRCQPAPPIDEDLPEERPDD
human A3AR, sequence (P0DMS8 whole entry): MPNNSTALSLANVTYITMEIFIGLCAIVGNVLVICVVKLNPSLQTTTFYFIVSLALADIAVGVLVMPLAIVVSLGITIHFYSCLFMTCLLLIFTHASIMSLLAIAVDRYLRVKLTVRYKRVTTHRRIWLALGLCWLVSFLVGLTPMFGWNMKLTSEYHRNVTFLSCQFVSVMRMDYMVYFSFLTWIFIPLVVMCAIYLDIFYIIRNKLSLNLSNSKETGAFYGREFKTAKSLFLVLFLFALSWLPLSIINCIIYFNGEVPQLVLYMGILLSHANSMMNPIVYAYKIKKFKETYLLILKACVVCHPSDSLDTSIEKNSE
human A3ARs, sequence (P0DMS8 whole entry): as above

Clc1ccc(Nc2nc3ccccc3c3[nH]c(C4CCCCC4)nc23)cc1Cl [Compound 45, N-(3,4-Dichloro-phenyl)-2-cyclohexyl-1H-imidazo[4,5-c]quinolin-4-amine]
% Increase of efficacy at hA3AR at 10 μM (human A3ARs): 145 ± 7% | hA3AR % displ. at 10 μM (human A3AR; 10 μM, [125I]I-AB-MECA, CHO cells, Table 3): 45% | inhibition at 10 µM (human A3AR; 1 h, 10 μM, [125I]I-AB-MECA (0.5 nM), CHO cells, Table 2, read-out: hA3AR % displ. at 10 μM): 45% | affinity to orthosteric versus allosteric binding sites (selective affinity) (human A3AR; orthosteric sites of A1, A2A, A2B, A3 receptors vs allosteric site of A3 adenosine receptor): selective affinity; also recorded: best separation between orthosteric and allosteric recognition | number of neutrophils (myeloid system): increased | number of white blood cells (WBC) (myeloid system): increased | clinical score (arthritic score, max 16) [1]: reduction in clinical score | hA2AAR % displ. at 10 μM (human A2A AR; [3H]CGS 21680 (15 nM), HEK293 cells, Table 2): −1% | hA2AAR % displ. at 10 μM (human A2A AR; [3H]CGS 21680, Table 3): <10% | hA2AAR % displ. at 10 μM (human A2A AR; [3H]CGS 21680, Table 4): <10% | inhibition at 10 µM (human A1AR; [3H]R-PIA, Table 3): < 10% | inhibition at 10 µM (human A1AR; [3H]R-PIA, Table 4): < 10% | inhibition at 10 µM (human A1AR; [3H]R-PIA (2.0 nM), Table 2): -2%
